The target in the test is T1, human CH24H (Homo sapiens, UniProt Q9Y6A2).
T1 construct: Using Full-Length Mammalian Gene Collection No. 4819975 (Invitrogen) as a template; made in house; host or cells: FreeStyle 293-F cells, transient transfection with pcDNA3.1(+)/hCH24H; lysate supernatant, not purified
Kind of test: Measurement of CH24H inhibitory activity (24-HC produced from [14C] cholesterol by human CH24H lysate). The class given is biochemical. As to conditions: 1 μM test compound, [14C] cholesterol 15 μM, 37° C. for 5 hr, read-out: Inhibitory Rate in 1 μM (%). The method, then:
The expression of human CH24H was performed using FreeStyle 293 Expression System (Invitrogen). […] After transfection, the cells were cultured at 37° C., 8% CO2 with shaking at 125 rpm for 2 days. The cells were collected by centrifugation, and suspended in a suspension buffer (100 mM potassium phosphate (pH 7.4), 0.1 mM EDTA, 1 mM DTT, 20% Glycerol). The suspended product was disrupted by a polytron homogenizer (manufactured by Kinematica), and centrifuged at 9000×g for 10 min, and the supernatant was collected. The collected supernatant was cryopreserved (−80° C.) as a human CH24H lysate standard product.
For the measurement of CH24H inhibitory activity, using the human CH24H lysate prepared in Experimental Example 2, the amount of 24-HC produced from cholesterol by catalytic activity of CH24H was measured in the presence of a test compound, and compared with that measured in the absence of the test compound. That is, a test compound solution at various concentrations was mixed with a reaction buffer (50 mM potassium phosphate containing 0.1% BSA and Complete, EDTA-free, pH 7.4) and human CH24H lysate. Then, [^14C] cholesterol (53 mCi/mmol specific activity, 15 μM) was added, and CH24H reaction was performed at 37° C. for 5 hr. After completion of the reaction, a quenching solution consisting of chloroform/methanol/distilled water (2:2:1 v/v) was added, and the resulting 24-HC was extracted by shaking. The extract was applied to silica gel thin layer chromatography (ethyl acetate:toluene=4:6), and the obtained ^14C-24HC fraction was measured with BAS2500 (Fujifilm Corporation).
The inhibitory rate (%) was calculated from the ratio of radioactivity in the presence of a test compound relative to the radioactivity in the absence of the test compound.

Experimental findings from patent US9643957B2, “Heterocyclic compounds having cholesterol 24-hydroxylase activity” (TAKEDA PHARMACEUTICAL COMPANY LIMITED, priority 2012, dated 2017) are described below.

T1 sequence (Q9Y6A2 whole entry): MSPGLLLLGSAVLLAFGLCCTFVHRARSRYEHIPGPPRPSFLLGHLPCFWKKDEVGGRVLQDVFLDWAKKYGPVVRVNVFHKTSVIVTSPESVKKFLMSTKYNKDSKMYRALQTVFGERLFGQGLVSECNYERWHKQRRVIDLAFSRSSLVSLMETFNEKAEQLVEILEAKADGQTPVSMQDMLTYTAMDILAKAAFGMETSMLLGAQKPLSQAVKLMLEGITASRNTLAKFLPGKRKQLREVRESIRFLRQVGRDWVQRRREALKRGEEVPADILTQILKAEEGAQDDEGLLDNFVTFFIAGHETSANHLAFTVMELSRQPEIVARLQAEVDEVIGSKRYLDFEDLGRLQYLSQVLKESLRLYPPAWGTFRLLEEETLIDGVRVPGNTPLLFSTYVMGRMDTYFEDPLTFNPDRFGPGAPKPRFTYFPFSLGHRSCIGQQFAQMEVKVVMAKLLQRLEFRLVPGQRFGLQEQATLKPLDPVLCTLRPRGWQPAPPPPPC

Regarding `Cc1cnn(-c2ccncc2N2CCC(C(=O)N3CC[C@H](F)C3)CC2)c1` [Example 282, ((3S)-3-fluoropyrrolidin-1-yl)(1-(4-(4-methyl-1H-pyrazol-1-yl)pyridin-3-yl)piperidin-4-yl)methanone], the inhibition at 1 µM is 83%.

On to `Cc1cnn(-c2ccncc2N2CCC(C(=O)N(CCF)[C@H]3CCOC3)CC2)c1` [Example 312, N-(2-fluoroethyl)-1-(4-(4-methyl-1H-pyrazol-1-yl)pyridin-3-yl)-N-((3S)-tetrahydrofuran-3-yl)piperidine-4-carboxamide], for which the inhibition at 1 µM was determined as 71%.

Turning to `O=C(C1CCN(c2cnccc2-c2ccccn2)CC1)N1CCC(F)(F)C1` [Example 214, (1-(2,4′-bipyridin-3′-yl)piperidin-4-yl) (3,3-difluoropyrrolidin-1-yl)methanone], the inhibition at 1 µM was found to be 89%.

Turning to `Cc1cnn(-c2ccncc2N2CCC3(CCN(C)C3=O)CC2)c1` [Example 82, 2-methyl-8-(4-(4-methyl-1H-pyrazol-1-yl)pyridin-3-yl)-2,8-diazaspiro[4.5]decan-1-one], the inhibition at 1 µM is 97%.

For `O=C(NC1CC1)C1CCN(c2cncnc2-c2ccc(F)cc2)CC1` [Example 193, N-cyclopropyl-1-(4-(4-fluorophenyl)pyrimidin-5-yl)piperidine-4-carboxamide], the inhibition at 1 µM stood at 90%.

Turning to `Cc1ccc(-c2ccncc2N2CCN(C(=O)CC3CC3)CC2)cc1` [Example 148, 2-cyclopropyl-1-(4-(4-(4-methylphenyl)pyridin-3-yl)piperazin-1-yl)ethanone], the inhibition at 1 µM was determined as 92%.

With `O=C(C1CCN(c2cnccc2-n2cc(C3CC3)cn2)CC1)N1CC[C@H](F)C1` [Example 322, (1-(4-(4-cyclopropyl-1H-pyrazol-1-yl)pyridin-3-yl)piperidin-4-yl)((3S)-3-fluoropyrrolidin-1-yl)methanone], the inhibition at 1 µM was determined as 93%.

In the case of `NC(=O)[C@@H]1CC(F)(F)CN1C(=O)C1CCN(c2cnccc2-n2cc(Cl)cn2)CC1` [Example 117, 1-((1-(4-(4-chloro-1H-pyrazol-1-yl)pyridin-3-yl)piperidin-4-yl)carbonyl)-4,4-difluoro-L-prolinamide], the inhibition at 1 µM was found to be 85%.

For `N#C[C@H]1CCCN1C(=O)N1CCN(c2cncnc2-c2ccc(F)cc2)CC1` [Example 198, (2R)-1-((4-(4-(4-fluorophenyl)pyrimidin-5-yl)piperazin-1-yl)carbonyl)pyrrolidine-2-carbonitrile], the inhibition at 1 µM amounted to 90%.

Consider `CN(C)C(=O)C1CCN(c2cnccc2-c2nc3ccccc3s2)CC1` [Example 21, 1-(4-(1,3-benzothiazol-2-yl)pyridin-3-yl)-N,N-dimethylpiperidine-4-carboxamide], for which the inhibition at 1 µM was determined as 85%.

For the molecule `CO[C@@H]1CCN(C(=O)C2CCN(c3cnccc3-n3cc(Cl)cn3)CC2)C1` [Example 300, (1-(4-(4-chloro-1H-pyrazol-1-yl)pyridin-3-yl)piperidin-4-yl)((3R)-3-methoxypyrrolidin-1-yl)methanone], the inhibition at 1 µM came to 83%.

As to `CO[C@@H]1CCN(C(=O)C2CCN(c3cnccc3-n3cc(C)cn3)CC2)C1` [Example 302, ((3R)-3-methoxypyrrolidin-1-yl)(1-(4-(4-methyl-1H-pyrazol-1-yl)pyridin-3-yl)piperidin-4-yl)methanone], the inhibition at 1 µM was determined as 87%.

On to `CC1(CNC(=O)C2CCN(c3cnccc3-n3cc(Cl)cn3)CC2)COC1` [Example 31, 1-(4-(4-chloro-1H-pyrazol-1-yl)pyridin-3-yl)-N-((3-methyloxetan-3-yl)methyl)piperidine-4-carboxamide], for which the inhibition at 1 µM came out at 97%.

Take `O=C(CC1CC1)N1C[C@@H]2C[C@H]1CN2c1cnccc1-c1ccccc1` [Example 161, 2-cyclopropyl-1-((1S,4S)-5-(4-phenylpyridin-3-yl)-2,5-diazabicyclo[2.2.1]hept-2-yl) ethanone]: the inhibition at 1 µM was 56%.

On to `CN(C(=O)C1CCN(c2cncnc2-c2ccc(F)cc2)CC1)[C@H]1CCOC1` [Example 309, 1-(4-(4-fluorophenyl)pyrimidin-5-yl)-N-methyl-N-((3S)-tetrahydrofuran-3-yl)piperidine-4-carboxamide], for which the inhibition at 1 µM worked out at 85%.

As for `O=C(NC1CCCC1)C1CCN(c2cnccc2-n2cc(Cl)cn2)CC1(F)F` (stereo not drawn) [Example 38, 1-(4-(4-chloro-1H-pyrazol-1-yl)pyridin-3-yl)-N-cyclopentyl-3,3-difluoropiperidine-4-carboxamide], the inhibition at 1 µM was 98%.

Regarding `O=C(C1CCN(c2cncnc2-c2ccc(F)cc2)CC1)N1CC[C@H](F)C1` [Example 286, (1-(4-(4-fluorophenyl)pyrimidin-5-yl)piperidin-4-yl) ((3S)-3-fluoropyrrolidin-1-yl)methanone], the inhibition at 1 µM is 83%.

Regarding `O=C(C1CCN(c2cnccc2-n2cc(Cl)cn2)CC1)N1CC[C@H](F)C1` [Example 284, (1-(4-(4-chloro-1H-pyrazol-1-yl)pyridin-3-yl)piperidin-4-yl)((3S)-3-fluoropyrrolidin-1-yl)methanone], the inhibition at 1 µM was found to be 80%.

Take `CNC(=O)C1CCN(c2cnccc2-n2cc(C(F)(F)F)cn2)CC1` [Example 12, N-methyl-1-(4-(4-(trifluoromethyl)-1H-pyrazol-1-yl)pyridin-3-yl)piperidine-4-carboxamide]: the inhibition at 1 µM was found to be 90%.

Consider `CC(C)C1CCCN1C(=O)C1CCN(c2cnccc2-n2cc(Cl)cn2)CC1` (stereo not drawn) [Example 29, (1-(4-(4-chloro-1H-pyrazol-1-yl)pyridin-3-yl)piperidin-4-yl)(2-isopropylpyrrolidin-1-yl)methanone], for which the inhibition at 1 µM amounted to 97%.

Regarding `CN1CCC2(CCN(c3cncnc3-c3ccc(F)cc3)CC2)C1=O` [Example 222, 8-(4-(4-fluorophenyl)pyrimidin-5-yl)-2-methyl-2,8-diazaspiro[4.5]decan-1-one], the inhibition at 1 µM was 92%.

Turning to `O=C(C1CC1)N1CCN(c2cncc(F)c2-c2ccccc2)CC1` [Example 165, cyclopropyl(4-(5-fluoro-4-phenylpyridin-3-yl)piperazin-1-yl)methanone], the inhibition at 1 µM was 86%.

As to `Cc1cnn(-c2ccncc2N2CCC(C(=O)N3CC[C@@H](F)C3)CC2)c1` [Example 283, ((3R)-3-fluoropyrrolidin-1-yl)(1-(4-(4-methyl-1H-pyrazol-1-yl)pyridin-3-yl)piperidin-4-yl)methanone], the inhibition at 1 µM worked out at 85%.

As to `O=C(C1CC1)N1CCN(c2cnccc2-c2ccccc2)CC1` [Example 152, cyclopropyl(4-(4-phenylpyridin-3-yl)piperazin-1-yl)methanone], the inhibition at 1 µM stood at 90%.

`CN(C(=O)C1CCN(c2cncnc2-c2ccc(F)cc2)CC1)[C@@H]1CCOC1` [Example 310, 1-(4-(4-fluorophenyl)pyrimidin-5-yl)-N-methyl-N-((3R)-tetrahydrofuran-3-yl)piperidine-4-carboxamide]: the inhibition at 1 µM was found to be 82%.

With `Cc1cnn(-c2ccncc2N2CCN(C(=O)N(C)Cc3ccc(F)cc3)CC2)c1` [Example 297, N-(4-fluorobenzyl)-N-methyl-4-(4-(4-methyl-1H-pyrazol-1-yl)pyridin-3-yl)piperazine-1-carboxamide], the inhibition at 1 µM was determined as 84%.

As for `O=C(NC1CCOCC1)C1CCN(c2cnccc2-n2cc(Cl)cn2)CC1` [Example 24, 1-(4-(4-chloro-1H-pyrazol-1-yl)pyridin-3-yl)-N-(tetrahydro-2H-pyran-4-yl)piperidine-4-carboxamide], the inhibition at 1 µM is 96%.
